For data set [1] the following is noted: not measured, data according to Neues Rezeptur-Formularium, cited from earlier work.
Data set [2] is described as follows: Abafungin solubility in excipients (Example 1). Format: physicochemical. How it is done: To order to study the solubility of abafungin, abafungin was dissolved in a number of excipients.
Data set [3] can be described thus: Fungicidal concentrations of abafungin (stated in Example 4). Format: cell-based.

Read-outs that look alike come from different tables or passages of the source. Marks after values point to notes of the source that are not given here.

In the case of `Cc1cc(C2CCCCC2)n(O)c(=O)c1` [Ciclopirox Olamine], the figures for the maximum solubility entry in data set [1] (Ethanol gel (NRF 11.84)), in data set [1] (Pure ethanol) and in data set [1] (Pure water) were “~soluble*^5”, “~soluble*^5” and ~1-3%*^5, respectively.

Turning to `Cc1ccc(Oc2ccccc2-c2csc(N=C3NCCCN3)n2)c(C)c1` [abafungin], the Not soluble result in data set [2] (excipient: MPEG 550), in data set [2] (excipient: MPEG 2000), in data set [2] (excipient: PEG 400), in data set [2] (excipient: PEG 1500), in data set [2] (excipient: PEG 4500) and in data set [2] (excipient: PEG 6000) was “✓” each time. Besides, the Not soluble result in data set [2] (excipient: PEG 12000), in data set [2] (excipient: PEG 20000), in data set [2] (excipient: cetearyl ethylhexanoate (cosmetic oils)), in data set [2] (excipient: decyl oleate (cosmetic oils)), in data set [2] (excipient: ethanol) and in data set [2] (excipient: ethanol 70%) was “✓” throughout. The Not soluble entry in data set [2] (excipient: glycerine), in data set [2] (excipient: isopropanol), in data set [2] (excipient: isopropyl myristate (cosmetic oils)), in data set [2] (excipient: isopropyl palmitate (cosmetic oils)), in data set [2] (excipient: medium chain triglyceride (cosmetic oils)) and in data set [2] (excipient: propylene glycol) was “✓” throughout. Besides, the Not soluble result in data set [2] (excipient: water) is reported as “✓”. Besides, the Soluble result in data set [2] (excipient: transcutol) was “✓ (3%)”. In addition, in data set [2] (mixture of water, polyethylene glycol, polyethylene glycol monomethyl ether and an acid such as formic acid), the “solubility” value was “soluble”. Moreover, the fungicidal concentrations in data set [3] was 16 to 30 µg/mL.

Values taken from US20110059985A1, “NOVEL FORMULATION” (priority 2007, published 2011).
